Measurements from patent US5382572A, “Alkyl and acyl substituted quinolines” (Schering Corporation, priority 1993, dated 1995).
Where two headings read alike, the source gives them in different places.

Experiments:
[1] = system: HSV-2 (strain MS); assay: HSV-β-gal assay: transient expression of beta-galactosidase in transfected HeLa cells superinfected with HSV-2; type: cell-based; settings: Human alphaherpesvirus 2, HeLa, 24 h, inhibition of beta-galactosidase expression, MOI 5 pfu/cell, read-out: ANTI-HSV ACTIVITY HSV-β-GAL ASSAY IC50
Description: HeLa and Vero cell cultures were maintained in Eagle's Minimal Essential Medium (EMEM) which was supplemented with glutamine, penicillin, streptomycin and 10% fetal calf serum (10% EMEM). Stock cultures of HSV-2 (strain MS available from ATCC VR-540) were grown in and harvested from Vero cells. Viral stocks were titered in Vero cells according to established procedures.
Plasmid pON 245^ori- contains the promoter of the HSV-1 thymidine kinase (tk) gene located immediately 5' of the E. coli lac Z gene. In this arrangement, the tk promoter controls transcription from the bacterial gene in transient expression assays. Additionally, an SV40 polyadenylation signal is present at the 3'-end of the lac Z gene to allow for the efficient translation of the mRNA in eucaryotic cells. The expression of beta-galactosidase in a transient assay using pON 245^ori- is dependent upon superinfection of the transfected cells with HSV. […] For example, see European Patent Application No. 8302149.5 filed Mar. 11, 1988 and published Sep. 14th 1988 as 282,330, the disclosure of which is incorporated herein by reference thereto.
HeLa cells were seeded into 96 well microtiter plates and allowed to grow to 80% confluency (approximately 35000 cells/well). One half microgram of plasmid pON 245^ori- DNA was introduced into the cells of each well by the […] precipitation technique (Grahman and Van der Eb, 1973). Four to six hours later, the cells were rinsed with Hank's Balanced Salt Solution (HBSS), overlaid with 10% EMEM and incubated at 37° C. At 24 hour post-transfection, cells were rinsed, overlaid with 10% EMEM again and re-incubated at 37° C. At 48 hours. post-transfection, cells were rinsed and overlaid with either EMEM containing 2% fetal calf serum (2% EMEM), 2% EM EM containing HSV-2 (strain MS, Multiplicity of Infection [moil =5 pfu/cell) or 2% EMEM containing HSV-2 and the appropriate concentration of the compound to be tested. Twenty-four hours later, the cells were harvested and assayed for beta-galactosidase activity as described below.
(§1) All determinations of beta-galactosidase activity were performed in 96 well microtiter plates. The intracellular level of beta-galactosidase activity in each well was determined from cell lysates of the monolayer cultures. Aliquots were assayed by incubation in the presence of beta-galactosiclasesubstrate, 4-methyl-umbelliferyl-β-D-galactoside (MUG, 125 μg/ml, Sigma), for 2 hour. The generation of fluorescent product was quantified on a Microfluor microfluorimeter (Dynatech) after addition of 0.1M glycine, pH 10.3 (Spaete and Mocarski, 1985). The inhibitory activity of a compound was plotted versus the concentration and an IC50 value (the concentration of compound required to reduce beta-galactosidase expression by 50%) was obtained for each compound tested.
Anti-HSV activity refers to the IC50 values in the HSV-β-gal assay which measures anti-viral activity in terms of inhibition of beta-galactosidase expression. The IC50 values refer to the concentration of the compound in micrograms/milliliter needed to reduce beta-galactosidase expression by 50%.

[2] = Compound toxicity assay: 3H-leucine incorporation (translational activity) in HeLa cells; type: cell-based; settings: human, reduction of leucine incorporation, read-out: CYTOTOXICITY 3H-LEU ASSAY IC50
Description: HeLa cells were treated with inhibitory compound for 24 hours, after which levels of translational activity were assayed.
For assay of translational activity, HeLa cultures were grown to 80% confluency in 96 well microtiter plates, treated with appropriate concentrations of compound in 2% EMEM during an overnight incubation at 37° C., then rinsed with HBSS and overlaid with […] of 2% EMEM containing 8 μCi of tritiated leucine (141 Cμ/mMol, Amersham Corp., Arlington Heights Ill.). After a 1 hour incubation at 36.5° C., the cells were rinsed twice with phosphate buffered saline (PBS) and lysed in 400 μl/well of 1×PBS, 0.5% sodium dodecyl sulphate (SDS). After a 10 min incubation at 36.5° C., the contents of the well were transferred to a well in a Millititer HA microfiltration plate (Millipore Corp., Bedford, Mass.). The TCA-insoluble proteins were precipitated onto the filter disc by a 10-minute-fixation with 5% TCA, followed by filtration under vacuum and three 10-minute-rinses with 95% ethanol. The filters were dried at room temperature, cut from the millititer plate and transferred to scintillation vials. TCA precipitable counts were assayed in 5 ml of Scintisol (Isolab, Akron, Ohio). The inhibitory activity of a compound was plotted versus the concentration and an IC50 value (that concentration of the compound required to decrease cellular translational activity by 50%) was derived for each compound.
Cytotoxicity refers to the IC50 values in the 3H-leucine (3H-Leu) incorporation. The IC50 values in this test refer to the concentration of the compound in micrograms/milliliter which reduces leucine incorporation by 50%.

[3] = system: HSV-2, strain MS; assay: Prophylactic guinea pig model of HSV-2 infection; type: in vivo; settings: test compounds 60 mg/kg s.c., T.I.D., 10 days, from 24 hours before infection; for MLS (Maximum Lesion Scores): scale of 1 (least) to 4 (severe), placebo 3; for NEUROLOGICAL DYSFUNCTIONS (percentage animals developing loss of bladder/hindlimb control): placebo 87
Description: The in vive assessment of anti-HSV efficacy was determined in the prophylactic guinea pig model of HSV infection described by Stansberry et al (1982). Dosing of guinea pigs comprised an initial treatment with test compound given 24 hours prior to virus infection and subsequent administration of the compound every eight hours (T.I.D.) for a total of 10 days. Test compounds were administered subcutaneously in 0.5% buffered methyl celluslose at a dose of 60 mg per kg body weight of the animal. Animals were monitored daily for the development of genital lesions and neurological symptomology, both of which were recorded and compared to the results obtained with parallel groups which received placebo or acyclovir treatment. Efficacy was evaluated for each compound by scoring the ability of the compound to ameliorate genital lesions produced by infection with HSV-2, strain MS, expressed as Maximum Lesion Scores (MLS) on a scale of 1 (least lesion) to 4 (severe lesions).

[4] = system: CMV (strain Towne); assay: CMV-β-Gal assay: beta-galactosidase transient expression assay with CMV; type: cell-based; settings: Human betaherpesvirus 5, read-out: ANTI-CMV ACTIVITY CMV-β-Gal ASSAY IC50, CMV strain Towne
Description: as §1
Human foreskin fibroblast (HHF) cell cultures were grown in 10% EMEM. CMV (strain Towne received from Stanford University) was grown and titered in HHF cells. Plasmids pON 249 and pON 241 Δ NH3, containing CMV promoter genes, were used in the β-galactosidase transient expression assay as shown above.

[5] = CMV toxicity assay: tritiated leucine (3H-Leu) assay in HFF cells; type: cell-based; settings: HFF cells (human foreskin fibroblast); read-out: CYTOTOXICITY 3H-LEU ASSAY IC50
[6] = system: antiviral activity of lidocaine or lidocaine hydrochloride; settings: added to lidocaine or lidocaine hydrochloride; Haines et al.; cited from earlier work

SMILES	IC50 ([1]; first value)	CC50 at 24 h ([2]; first value)	IC50 ([1]; *Repeat)	CC50 at 24 h ([2]; *Repeat)	further results
CC(=O)Oc1c(C(OC(C)=O)OC(C)=O)c(=O)n(Cc2ccccc2)c2ccc(C)cc12 [Formula 1.10]	7 µg/mL	18 µg/mL	–	–	–
CC(=O)Oc1c(C(OC(C)=O)OC(C)=O)c(=O)n(C)c2ccccc12 [Formula 1.5]	4 µg/mL	25 µg/mL	3 µg/mL	25 µg/mL	MLS (Maximum Lesion Scores) [3]: 1.3; NEUROLOGICAL DYSFUNCTIONS (percentage animals developing loss of bladder/hindlimb control) [3]: 0%
CCCCCCn1c(=O)c(C(OC)OC)c(OC)c2cc(C)ccc21 [Formula 1.17]	5 µg/mL	30 µg/mL	–	–	–
CCCCC(=O)Oc1c(C(OC(=O)CCCC)OC(=O)CCCC)c(=O)n(C)c2ccccc12 [Formula 1.8]	5 µg/mL	30 µg/mL	4 µg/mL	> 10 µg/mL	–
CC(=O)Oc1ccc2c(c1)c(OC(C)=O)c(C(OC(C)=O)OC(C)=O)c(=O)n2Cc1ccccc1 [Formula 1.2]	3 µg/mL	21.5 µg/mL	2.5 µg/mL	3 µg/mL	–
CC(=O)Oc1c(C(OC(C)=O)OC(C)=O)c(=O)n(Cc2ccccc2)c2ccccc12 [Formula 1.6]	4 µg/mL	32 µg/mL	8 µg/mL	37 µg/mL	IC50 ([4]; first value): 7 µg/mL; IC50 ([4]; second value marked * (repeat)): 8 µg/mL; CC50 [5]: 28 µg/mL
CCCCCCn1c(=O)c(C(OC(C)=O)OC(C)=O)c(OC)c2cc(C)ccc21 [Formula 1.4]	3 µg/mL	2.5 µg/mL	–	–	–
C=CCOC(=O)Cn1c(=O)c(C(OC(C)=O)OC(C)=O)c(OC(C)=O)c2ccccc21 [Formula 1.16]	10 µg/mL	43 µg/mL	–	–	–
CC(C)(CO)[C@@H](O)C(=O)NCCCO [dexpanthenol]	–	–	–	–	enhancement of antiviral activity of lidocaine or lidocaine hydrochloride [6]: significantly enhances the antiviral activity
COc1c(C(OC(C)=O)OC(C)=O)c(=O)n(Cc2ccccc2)c2ccc(C)cc12 [Formula 1.3]	3 µg/mL	2.7 µg/mL	–	–	MLS (Maximum Lesion Scores) [3]: 1.8; NEUROLOGICAL DYSFUNCTIONS (percentage animals developing loss of bladder/hindlimb control) [3]: 0%
